Entries after “also recorded” stand apart in the source; their conditions may differ.
Legend:
IGFBPs = details: known in the art (U.S. Pat. No. 4,876,242; Francis et al. 1992); cited from earlier work
[1] = tested on: CD19+ B cells and CD3+ T cells in the peripheral blood of SLE patients; details: Jacobi et al 2010; cited from earlier work
IGF-1R = IGF-1R (Homo sapiens, UniProt P08069); details: Hakuno et al. 2018; cited from earlier work
[2] = tested on: bulk subpopulations of PBMCs from patients with SLE, RA and SSc; assay: Effect of LX-101 on bulk PBMC subpopulations (percentage of live cells by flow cytometry); format: cell-based, human; details: 17 μM LX-101, three days
From the text: Frozen peripheral blood mononuclear cells (PBMCs) were obtained from Discovery Life Sciences from patients diagnosed with lupus, rheumatoid arthritis, and scleroderma. One sample was obtained from a person diagnosed with systemic lupus erythematosus (SLE) undergoing active treatment with methotrexate, Celebrex, prednisone, and Benlysta. A second sample was obtained from a person diagnosed with scleroderma (SSc) before receiving treatment. A third sample was obtained from a person diagnosed with rheumatoid arthritis (RA) undergoing active treatment with Nabumetone. All samples were collected following informed consent.
The PBMCs were thawed, washed, and resuspended in AIM V media with 5% human AB serum (hAB) at a concentration of 1×10^6 cells/mL. PBMCs were seeded in a 24 well plate (1×10^6 cells/well) and treated with a 17 μM of LX-101 or hydrochloric acid (HCl) as a vehicle control. […]
After the three day incubation with LX-101 or the vehicle control, the PBMCs were blocked with human TruStain FcX Fc receptor blocking solution, and stained with an antibody mixture with markers shown in Table 2. […] Data were analyzed with Kaluza software.
The effect of LX-101 was analyzed for both the bulk PBMC and IGF-1R^+ subpopulations. The percentages of live, B cells, CD4^+ T cells, CD8^+ T cells, NK cells, and NKT cells were determined.

[3] = tested on: IGF-1R+ subpopulations of PBMCs from patients with SLE, RA and SSc; assay: Effect of LX-101 on IGF-1R+ PBMC subpopulations (percentage of live IGF-1R+ cells by flow cytometry); format: cell-based, human; details: 17 μM LX-101, three days
From the text: Frozen peripheral blood mononuclear cells (PBMCs) were obtained from Discovery Life Sciences from patients diagnosed with lupus, rheumatoid arthritis, and scleroderma. One sample was obtained from a person diagnosed with systemic lupus erythematosus (SLE) undergoing active treatment with methotrexate, Celebrex, prednisone, and Benlysta. A second sample was obtained from a person diagnosed with scleroderma (SSc) before receiving treatment. A third sample was obtained from a person diagnosed with rheumatoid arthritis (RA) undergoing active treatment with Nabumetone. All samples were collected following informed consent. The PBMCs were thawed, washed, and resuspended in AIM V media with 5% human AB serum (hAB) at a concentration of 1×10^6 cells/mL. PBMCs were seeded in a 24 well plate (1×10^6 cells/well) and treated with a 17 μM of LX-101 or hydrochloric acid (HCl) as a vehicle control. LX-101 was supplied at a concentration of 4 mM (where the concentration is expressed in terms of the amount of methotrexate in the drug) in 10 mM HC1. The vehicle control groups received the same concentration of HCl as that in the LX-101 solution received by the treatment group. PBMCs were incubated at 37° C. with 5% CO2 for three days. After the three day incubation with LX-101 or the vehicle control, the PBMCs were blocked with human TruStain FcX Fc receptor blocking solution, and stained with an antibody mixture with markers shown in Table 2. Cells were fixed and flow cytometric data were collected for 50,000 live cell events using a BD LSRFortessa X-20 flow cytometer. Data were analyzed with Kaluza software. The effect of LX-101 was analyzed for both the bulk PBMC and IGF-1R^+ subpopulations. The percentages of live, B cells, CD4^+ T cells, CD8^+ T cells, NK cells, and NKT cells were determined.

[4] = PBMCs from SLE, RA and SSc patients

Sequence of IGF-1R (P08069 31-736 limits assumed, species assumed): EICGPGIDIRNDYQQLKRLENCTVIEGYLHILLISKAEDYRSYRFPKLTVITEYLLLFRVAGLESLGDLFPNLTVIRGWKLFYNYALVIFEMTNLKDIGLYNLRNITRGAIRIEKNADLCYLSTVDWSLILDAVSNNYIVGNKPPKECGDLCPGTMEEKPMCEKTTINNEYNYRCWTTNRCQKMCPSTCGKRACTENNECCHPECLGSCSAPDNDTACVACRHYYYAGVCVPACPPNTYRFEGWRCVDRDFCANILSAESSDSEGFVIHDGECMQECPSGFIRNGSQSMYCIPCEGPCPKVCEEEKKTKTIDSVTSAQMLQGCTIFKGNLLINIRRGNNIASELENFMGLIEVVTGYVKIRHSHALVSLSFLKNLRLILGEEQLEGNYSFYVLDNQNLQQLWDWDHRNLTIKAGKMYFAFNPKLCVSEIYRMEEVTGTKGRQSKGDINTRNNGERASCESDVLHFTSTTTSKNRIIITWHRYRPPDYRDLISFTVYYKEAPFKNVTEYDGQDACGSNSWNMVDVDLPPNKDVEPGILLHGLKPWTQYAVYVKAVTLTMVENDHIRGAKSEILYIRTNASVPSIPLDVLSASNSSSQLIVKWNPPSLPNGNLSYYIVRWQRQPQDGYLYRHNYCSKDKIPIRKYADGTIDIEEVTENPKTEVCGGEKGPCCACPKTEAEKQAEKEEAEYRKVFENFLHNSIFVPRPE
Sequence of IGF-1R (P08069 741-1367 partner limits assumed, species assumed): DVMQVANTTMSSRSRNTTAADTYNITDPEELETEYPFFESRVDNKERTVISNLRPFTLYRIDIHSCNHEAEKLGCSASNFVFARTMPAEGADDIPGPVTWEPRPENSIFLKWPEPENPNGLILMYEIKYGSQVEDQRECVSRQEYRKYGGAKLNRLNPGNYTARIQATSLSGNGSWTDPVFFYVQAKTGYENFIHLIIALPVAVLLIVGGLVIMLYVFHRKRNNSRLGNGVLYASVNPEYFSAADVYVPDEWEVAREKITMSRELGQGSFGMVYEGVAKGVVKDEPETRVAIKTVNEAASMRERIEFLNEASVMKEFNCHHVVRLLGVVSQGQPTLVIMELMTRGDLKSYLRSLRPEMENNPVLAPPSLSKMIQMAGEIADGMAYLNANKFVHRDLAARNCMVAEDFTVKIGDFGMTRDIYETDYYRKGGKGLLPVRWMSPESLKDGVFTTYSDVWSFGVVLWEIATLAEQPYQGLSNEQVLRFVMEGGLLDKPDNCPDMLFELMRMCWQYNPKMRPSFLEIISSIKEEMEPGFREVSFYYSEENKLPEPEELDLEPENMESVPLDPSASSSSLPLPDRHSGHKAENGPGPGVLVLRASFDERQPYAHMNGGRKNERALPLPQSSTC

Molecule: R3-IGF-1: glutamic acid in position 3 of native human IGF-1 is substituted by arginine
- binding affinity for IGFBPs compared to wildtype IGF-1 (IGFBPs): reduced binding affinity

Molecule: des (1-3) IGF-1: lacks the first three amino acids of human IGF-1
- binding affinity for IGFBPs compared to wildtype IGF-1 (IGFBPs): reduced binding affinity

Molecule: Benlysta: a B lymphocyte stimulator (BLyS)-specific inhibitor
- number of CD3+ T cells [1]: not affected
- total CD19+ B cells in the peripheral blood [1]: decrease

Molecule: insulin: native ligand to the IGF-1R; two chains connected by disulfide bonds
- affinity for IGF-1R, fold lower than the IGFs (IGF-1R): 50- to 100 fold

Molecule: LX-101
- off-target effects in IGF-1R− cells [2]: Little off-target effects
- percentage of live B cells, CD4+ T cells, CD8+ T cells, NK cells and NKT cells in the bulk PBMC population, vs vehicle control [2]: Little difference
- percentage of IGF-1R+CD19+ B cells vs vehicle control [3, 4]: reduced percentages; also recorded: reduction
- percentage of live IGF-1R+ cells (all subpopulations) vs vehicle control [3, 4]: marked reductions; also recorded: Reduced percentages
- IGF-1R+CD3+CD8+ T cells vs vehicle control ([3]; SLE, RA and SSc samples): reduction; also recorded: reduced percentages
- IGF-1R+CD56+CD3+ natural killer T (NKT) cells vs vehicle control ([3]; SLE, RA and SSc samples): modest reduction; also recorded: reduced percentages
- IGF-1R+CD3+CD4+ T cells vs vehicle control ([3]; SLE, RA and SSc samples, especially RA sample): substantial reduction; also recorded: reduced percentages
- IGF-1R+CD56+CD3− natural killer (NK) cells vs vehicle control ([3]; particularly samples from SLE and RA patients): reduction; also recorded: reduced percentages

B1: IGF132: first 17 amino acids of the B chain of insulin replace the first 16 amino acids of human IGF-1 (protein)
chain: FVNQHLCGSHLVEALYLVCGDRGFYFNKPTGYGSSSRRAPQTGIVDECCFRSCDLRRLEMYCAPLKPAKSA
- binding affinity for IGFBPs compared to wildtype IGF-1 (IGFBPs): reduced binding affinity

— patent US20250367267A1, “TREATING AUTOIMMUNE DISEASES WITH INSULIN-LIKE GROWTH FACTOR 1 RECEPTOR LIGAND CONJUGATED TO AN AGENT” (Lirum Therapeutics, Inc., priority 2022, published 2025)
